From EP3797781A1, “USE OF EC-7072 AND SYNERGIC COMPOSITIONS THEREOF IN TREATMENT OF CHRONIC LYMPHOCYTIC LEUKEMIA” (priority 2019, dated 2021) come the findings set out here.

The test system of this assay is isolated CLL cells. The experiment in a line: Western blotting of isolated CLL cells. In kind it is cell-based, human. The method, then:
Isolated CLL cells were treated with 200 nM EC-7072 for 3, 8 and 12 hours and lysed with lysis buffer [50 mM Tris-HCl (pH 8), 150 mM NaCl, 1 mM EDTA, 1% NP-40, 20 mM NaF, EDTA-free protease inhibitor cocktail and phosSTOPTM (Roche)]. After heat denaturation, 25 µg protein were resolved on 10% and 15% SDS-PAGE gels and transferred to PVDF membranes (Sigma-Aldrich). Membranes were blocked with 5% BSA and incubated overnight at 4 °C with the corresponding primary antibodies (p-PLCγ2 (Y759), p-ERK1/2 (T202/Y204), p-STAT3 (Y705), p-LYN (Y507), STAT3 and GAPDH from Cell Signaling, and PLCγ2, ERK1/2, LYN, BCL-xL and Noxa from Santa Cruz Biotechnology). Blots were developed with secondary antibodies conjugated to IRDye680 or IRDye800 (Li-Cor Biosciences) and signal was detected on an Odyssey scanner.
Levels of phosphorylated and total proteins were quantified following Western blotting by densitometric analysis employing ImageJ software (https://imagej.nih.gov/ij/). To determine relative protein amounts, signal intensities were first normalized to GAPDH and the ratio between phosphorylated and total proteins was then calculated.
Western blot analysis of BCL-xL and Noxa in isolated CLL cells (n = 3) treated with 200 nM EC-7072 for the indicated times was performed (Figure 6E).
The inhibition of the tonic BCR pathway by EC-7072 was evaluated by: • (i) incubating PBMCs from patients with CLL, following treatment with 200 nM EC-7072, for 8 hours. Surface expression of CD79A (Figure 7A), CD79B (Figure 7B) and IgM (Figure 7C) in leukemia cells (n = 5 - 6) was assessed by flow cytometry and the MFI was normalized to the control (DMSO) condition; • (ii) incubating isolated leukemia cells from patients with CLL (n = 10), following treatment with EC-7072 (200 nM), for 8 hours. Phosphorylation levels of p-SYK (Figure 7D), p-BTK (Figure 7E) and p-PLCy2 (Figure 7F) proteins and p-ERK1/2 (Figure 7G), p-AKT (Figure 7H), p-p65 NPκB (Figure 7I) and p-STAT3 (Figure 7J) were evaluated by phosphoflow and the MFI was normalized to the control (DMSO) from each individual patient; • (iii) incubating PBMCs from patients with CLL (n = 8), following treatment with EC-7072 (200 nM), for 8 hours. Viability was determined by DiOC6(3)/PI staining and normalized to the control (DMSO) condition for each individual patient to obtain the mean percentage of viable [DiOC6(3)^+] cells (Figure 7K); • (iv) incubating isolated CLL cells (n = 4) stimulated with CD40L (100 ng/mL) or IL-6 (40 ng/mL) for 15 minutes and detecting respective phosphorylation levels of p65 NF-κB (Figure 7L) and STAT3 (Figure 7M) by phosphoflow to obtain the mean MFI normalized to the control (DMSO) condition for each individual patient; • (v) incubating isolated leukemia cells from 3 patients with CLL, following treatment with 200 nM EC-7072, for 3, 8 and 12 hours. Protein lysates were immunoblotted to detect the phosphorylated (p-LYN, p-PLCγ2, p-STAT3 and p-ERK1/2) and total protein (LYN, PLCγ2, STAT3 and ERK1/2) levels (Figure 7N); • (vi) incubating isolated leukemia cells from 3 patients with CLL, following treatment with 200 nM EC-7072, for 3, 8 and 12 hours and immunoblotting of protein lysates to detect p-LYN, LYN, p-PLCγ2, PLCγ2, p-STAT3, STAT3, p-ERK1/2 and ERK1/2. […]

Where [1] appears, read: 200 nM, 3, 8 and 12 hours, 3 patients.

`CO[C@@H]([C@@H]1Cc2cc3cc(O[C@H]4C[C@@H](O[C@H]5C[C@@H](O)[C@H](O)[C@@H](C)O5)[C@H](O)[C@@H](C)O4)c(C)c(O)c3c(O)c2C(=O)[C@H]1O[C@H]1C[C@@H](O[C@H]2C[C@@H](O[C@H]3C[C@](C)(O)[C@H](O)[C@@H](C)O3)[C@@H](O)[C@@H](C)O2)[C@H](O)[C@@H](C)O1)[C@@H](O)C(C)=O` [EC-7072, mithramycin SK]: under setting [1], the “levels of p-STAT3 (Western blotting)” value was “diminished”; the “p-LYN, p-PLCγ2 and p-ERK1/2 (Western blotting)” value is “time-dependent reduction”; the “total amount of LYN, PLCγ2 and STAT3” value is “downregulate”. In addition, where the note is “200 nM, time-dependent, n = 3”, the “levels of the antiapoptotic protein BCL-xL” value was “decreased” and the “levels of the proapoptotic protein Noxa” value was “increase”.
